“Also recorded” adds a separate entry of the source. Read-outs that look alike come from different tables or passages of the source.
What was measured:
Format in all cases: cell-based, human
CEM leukemia cells = assay: Mitochondrial membrane potential (Δψm) assay, TMRM, FACS; conditions: for preserving mitochondrial membrane potential Δψm: 1, 2.5 or 5 μM
Experimental: Measurement of Mitochondrial Membrane Potential (Δψm)(FACS). For the determination of Δψm, CEM leukemia cells were pre-treated with or without the test compounds. The cells were treated with 5 mM DEM for 120 minutes, collected by centrifugation at 300×g for 3 minutes and then washed twice with phosphate buffered saline. The cells were re-suspended in HSSB buffer and incubated at 37° C. in the dark for 15 minutes with 250 nM TMRM (a cationic dye which accumulates within mitochondria in accordance with the Δψm Nernst potential). Cells were collected by centrifugation at 300×g for 3 minutes and then washed twice with phosphate buffered saline. The samples were analyzed immediately by flow cytometry using 488 nm excitation laser and the FL2-H channel. The results obtained were verified in three independent experiments. The protonophore FCCP (30 μM) was used to dissipate the chemiosmotic proton gradient (ΔμH^+) and served as a control for loss of Δψm. In each analysis, 10,000 events were recorded.

FRDA fibroblasts = assay: Calcein-AM cell viability assay, BSO-treated FRDA fibroblasts; conditions: for protection of FRDA fibroblasts from oxidative damage (cell viability): BSO-treated FRDA fibroblast; for EC50: BSO-treated FRDA fibroblasts, calcein-AM fluorescence, read-out: EC50 (effective concentration that prevents 50% of cell death)
Experimental: A cell viability assay using the dye calcein acetoxymethyl (AM) was used to determine the effects of invention compounds on GSH-mediated cell death in primary FRDA patient derived fibroblasts (Jauslin et al. (2002) Human Molecular Genetics. 11, 3055-3063) FRDA fibroblasts were treated with L-buthionine (S,R)-sulfoximine (BSO) to inhibit de novo synthesis of GSH (Griffith et al. (1979) J. Biol. Chem. 254, 7558-7560) causing oxidative stress, plasma membrane damage and cell death. Fibroblasts from Friedreich Ataxia patients, but not control cells, die after GSH depletion on incubation with BSO (Jauslin et al. (2002) Human Molecular Genetics. 11, 3055-3063). Cell viability was determined using calcein-AM (Molecular Probe, Eugene, Oreg.). In live cells, non-fluorescent calcein AM is hydrolyzed by intracellular esterases to produce the strongly green fluorescent anion calcein.
Cell culture and reagents: Primary fibroblasts were derived from a patient donor with a molecular diagnosis of FRDA and control donor with no mitochondrial disease. These cell lines were obtained from Coriell Cell Repositories (Camden, N.J., USA; catalog numbers GM04078 and GM08402, respectively). Fibroblasts were cultured in 64% (v/v) Eagle's Minimal Essential Medium (MEM), no phenol red with Eagle's balanced salt (EBS) and 25% M199 with EBS (GIBCO, Grand island, N.Y., USA) supplemented with 10% (v/v) Fetal Calf Serum (HyClone, South Logan, Utah, USA), 1% penicillin-streptomycin mix antibiotics (Cellgro, Manassan, Va., USA), 10 ng/mL insulin (Sigma, St. Louis, Mo., USA), 10 ng/mL basic fibroblast growth factor βFGF (Lonza, Walkersville, Md., USA) and 2 mM glutamine (HyClone, South Logan, Utah, USA). BSO (L-buthionine (S,R)-sulfoximine) and (+)-alpha-tocopherol were purchased from Sigma Chemicals and calcein AM was purchased from Molecular Probes. Cell were grown in 75 cm^2 culture flasks (T75) and incubated at 37° C. in a humidified atmosphere of 5% CO2 in air. Cells were fed twice a week and split every third day at a ratio of 1:3 upon reaching confluency. The invention compounds and reduced and oxidized forms of idebenone and alpha-tocopherol were reconstituted in DMSO or ethanol to provide 2.5 mM stock solutions.
Intervention compounds were screened according to the previous protocol (Jauslin et al. (2002) Human Molecular Genetics. 11, 3055-3063): Fibroblasts were seeded in 96 well microtiter black-walled cell culture plates (Costar, Corning, N.Y., USA) at a density of 3000 cells per well (100 μL). The plates were incubated overnight at 37° C. in a humidified atmosphere of 5% CO2 in air to allow attachment of the cells to the culture plate. Serial dilutions of intervention and references compounds were made from their respective stock solutions to give a total volume of 150 μL in each well. Plates were incubated overnight in cell culture. The following day, 50 μL of a 4 mM BSO solution (in culture media) was added to each well to provide a final BSO concentration of 1 mM. Cell viability was assessed after first signs of toxicity appeared in BSO-treated cells (typically after 24-30 hours) by examining cultures under phase-contrast microscopy. The cell culture medium was discarded by aspiration and each well of the cell culture plate washed with pre-warmed HSSB to remove serum esterase activity. Cells were then treated in with 200 μL of 1.2 μM calcein-AM in HSSB for 60 min at 37° C. in the dark to allow the dye to enter the cell and be cleaved by esterases. The negative control/background was 200 μL of HSSB buffer. Fluorescence intensities were measured with a Spectramax M5 spectrofluorometer (Molecular Devices, Sunnyvale, Calif., USA) using excitation and emission of 485 nm and 525 nm respectively. The intervention compounds were assayed in triplicate. […] The viability of non-BSO treated fibroblasts was set as 100%, and the viability of the BSO-treated and sample-treated cells was calculated relative to this value. […]

CEM cells = assay: Trypan blue cell viability assay, DEM-treated cells; conditions: for EC50: CEM cells, pre-treatment 2 h, diethylmaleate 3 h, trypan blue exclusion, read-out: EC50 (effective concentration that prevents 50% of cell death); for maintaining cell viability (trypan blue exclusion): overnight incubation, then 5 mM DEM, 3 h
Experimental: Cell viability determined by trypan blue exclusion assay: This technique was used to assess the cytoprotective effects of the invention compounds in cultured cells pharmacologically treated to induce cell death by GSH depletion. DEM was used to deplete cellular GSH and induce oxidative stress. The viability of DEM-treated CEM cells was determined by their ability to exclude the dye trypan blue. Viable cells exclude trypan blue; whereas, non-viable cells take up the dye and stain blue. Briefly, CEM cells were grown in RPMI 1640 medium (GIBCO, Grand island, N.Y., USA) supplemented with 10% fetal calf serum, 2 mM glutamine (HyClone, South Logan, Utah, USA), 1% penicillin-streptomycin mix (Cellgro, Manassan, Va., USA). Cells were seeded at a density of 1×10^6 cells/mL and treated with different concentrations of the invention compounds. Cells were incubated at 37° C. in a humidified atmosphere of 5% CO2 in air for three hours with 5 mM DEM. Cell viability was determined by staining cells with 0.4% trypan blue using a hemacytometer. At least 500 cells were counted for each experimental group. At the time of assay, >95% of DEM-treated cells were trypan blue positive; whereas, in non-DEM treated control cell cultures >95% cells were viable. Cell viability was expressed as the percentage of control. Data are expressed as means±S.E.M (n=3).

[1] = pretreatment 0.5, 1 or 2.5 μM overnight, DEM

Compound | maintaining mitochondrial membrane potential Δψm (CEM leukemia cells; [1]) | protection of FRDA fibroblasts from oxidative damage (cell viability) (FRDA fibroblasts) | EC50 (FRDA fibroblasts; Homo sapiens, Fibroblast) [µM] | EC50 (CEM cells) [µM] | EC50 (CEM cells; Homo sapiens, CCRF-CEM) [µM] | maintaining cell viability (trypan blue exclusion) (CEM cells) | preserving mitochondrial membrane potential Δψm (CEM leukemia cells; 4-hour pretreatment) | preserving mitochondrial membrane potential Δψm (CEM leukemia cells; 24-hour pretreatment) | maintaining mitochondrial membrane potential Δψm (CEM leukemia cells; FIG. 13, 4 or 24 hours pretreatment) | EC50 (FRDA fibroblasts) [µM]
Cc1nc(N(C)C)nc(CCCCCCCCCCO)c1O [Compound A, 2-N,N-dimethylamino-5-hydroxy-4-methyl-6-(10-hydroxydecyl)-pyrimidine] | clearly more effective in maintaining mitochondrial membrane potential; also recorded: very favorable properties | more effective than idebenone | 0.39 ± 0.028 | 0.202 ± 0.023 | 0.203 ± 0.023 | quite effective in maintaining cell viability following DEM treatment; also recorded: superior to idebenone in maintaining the viability of DEM-treated cells | – | – | – | –
Cc1nc2c(c(CC[C@](C)(O)CCC[C@H](C)CCC[C@H](C)CCCC(C)C)c1O)CCN2C [Compound C, 4-((3R,7R,11R)-3-hydroxy-3,7,11,15-tetramethylhexadecyl)-1,6-dimethyl-2,3-dihydro-1H-pyrrolo[2,3-b]pyridine-5-ol] | – | slightly more effective than α-tocopherol | 0.833 ± 0.075 | – | – | both effective in maintaining cell viability following treatment with DEM, with compound C being somewhat more effective; also recorded: superiority of compound C | more effective than tocopherol in preserving mitochondrial membrane potential | comparable to tocopherol | superior to tocopherol in maintaining mitochondrial membrane potential | –
COC1=C(OC)C(=O)C(CCCCCCCCCCO)=C(C)C1=O [idebenone, reference compound] | less effective in this regard | – | 0.71 ± 0.08 | – | 0.765 ± 0.036 | – | – | – | – | –
Cc1c(C)c2c(c(C)c1O)CC[C@@](C)(CCC[C@H](C)CCC[C@H](C)CCCC(C)C)O2 [α-tocopherol, reference compound] | – | – | – | – | – | effective in maintaining cell viability following treatment with DEM | – | – | – | 1.03 ± 0.116

Source: US8952025B2, “Multifunctional radical quenchers and their uses” (Arizona Board of Regents, A Body Corporate of the State of …, priority 2010, dated 2015)
